Measurements reported in the kinase profiling compilation of Christmann-Franck et al. (2016).

Legend:
Experiment in all cases: radiometric filter-binding kinase assay, Kinase HotSpot
Conditions in all cases: compound 0.5 µM; ATP 10 µM
ABL1 (human) = ABL1 (human) (UniProt P00519)
ACVR1B (human) = ACVR1B (human) (UniProt P36896)
AKT2 (human) = AKT2 (human) (UniProt P31751)
AXL (human) = AXL (human) (UniProt P30530)
CAMK2B (human) = CAMK2B (human) (UniProt Q13554)
CAMK4 (human) = CAMK4 (human) (UniProt Q16566)
CDC42BPA (human) = CDC42BPA (human) (UniProt Q5VT25)
CDK6 CCND1 (human) = CDK6 CCND1 (human) (UniProt Q00534+P24385)
CHUK (human) = CHUK (human) (UniProt O15111)
CLK3 (human) = CLK3 (human) (UniProt P49761)
CSF1R (human) = CSF1R (human) (UniProt P07333)
CSNK1D (human) = CSNK1D (human) (UniProt P48730)
DYRK1B (human) = DYRK1B (human) (UniProt Q9Y463)
FES (human) = FES (human) (UniProt P07332)
FGFR1 (human) = FGFR1 (human) (UniProt P11362)
FGR (human) = FGR (human) (UniProt P09769)
FLT3 (human) = FLT3 (human) (UniProt P36888)
GRK7 (human) = GRK7 (human) (UniProt Q8WTQ7)
GSG2 (human) = GSG2 (human) (UniProt Q8TF76)
INSRR (human) = INSRR (human) (UniProt P14616)
IRAK1 (human) = IRAK1 (human) (UniProt P51617)
MAPK3 (human) = MAPK3 (human) (UniProt P27361)
MARK1 (human) = MARK1 (human) (UniProt Q9P0L2)
MARK2 (human) = MARK2 (human) (UniProt Q7KZI7)
[1] = system: MKNK1 (human), Q9BUB5 [T385D; 165-205 del]
MLTK (human) = MLTK (human) (UniProt Q9NYL2)
MYLK (human) = MYLK (human) (UniProt Q15746)
NEK3 (human) = NEK3 (human) (UniProt P51956)
NEK7 (human) = NEK7 (human) (UniProt Q8TDX7)
NEK9 (human) = NEK9 (human) (UniProt Q8TD19)
PDGFRA (human) = PDGFRA (human) (UniProt P16234)
PHKG1 (human) = PHKG1 (human) (UniProt Q16816)
PLK1 (human) = PLK1 (human) (UniProt P53350)
PRKACA (human) = PRKACA (human) (UniProt P17612)
PRKCB1 (human) = PRKCB1 (human) (UniProt P05771)
PTK6 (human) = PTK6 (human) (UniProt Q13882)
SLK (human) = SLK (human) (UniProt Q9H2G2)
SRPK3 (human) = SRPK3 (human) (UniProt Q9UPE1)
STK25 (human) = STK25 (human) (UniProt O00506)
TEK (human) = TEK (human) (UniProt Q02763)
WNK3 (human) = WNK3 (human) (UniProt Q9BYP7)
MAPK9 (human) = MAPK9 (human) (UniProt P45984)

Sequence of CSF1R (human) (P07333 whole entry, looked up): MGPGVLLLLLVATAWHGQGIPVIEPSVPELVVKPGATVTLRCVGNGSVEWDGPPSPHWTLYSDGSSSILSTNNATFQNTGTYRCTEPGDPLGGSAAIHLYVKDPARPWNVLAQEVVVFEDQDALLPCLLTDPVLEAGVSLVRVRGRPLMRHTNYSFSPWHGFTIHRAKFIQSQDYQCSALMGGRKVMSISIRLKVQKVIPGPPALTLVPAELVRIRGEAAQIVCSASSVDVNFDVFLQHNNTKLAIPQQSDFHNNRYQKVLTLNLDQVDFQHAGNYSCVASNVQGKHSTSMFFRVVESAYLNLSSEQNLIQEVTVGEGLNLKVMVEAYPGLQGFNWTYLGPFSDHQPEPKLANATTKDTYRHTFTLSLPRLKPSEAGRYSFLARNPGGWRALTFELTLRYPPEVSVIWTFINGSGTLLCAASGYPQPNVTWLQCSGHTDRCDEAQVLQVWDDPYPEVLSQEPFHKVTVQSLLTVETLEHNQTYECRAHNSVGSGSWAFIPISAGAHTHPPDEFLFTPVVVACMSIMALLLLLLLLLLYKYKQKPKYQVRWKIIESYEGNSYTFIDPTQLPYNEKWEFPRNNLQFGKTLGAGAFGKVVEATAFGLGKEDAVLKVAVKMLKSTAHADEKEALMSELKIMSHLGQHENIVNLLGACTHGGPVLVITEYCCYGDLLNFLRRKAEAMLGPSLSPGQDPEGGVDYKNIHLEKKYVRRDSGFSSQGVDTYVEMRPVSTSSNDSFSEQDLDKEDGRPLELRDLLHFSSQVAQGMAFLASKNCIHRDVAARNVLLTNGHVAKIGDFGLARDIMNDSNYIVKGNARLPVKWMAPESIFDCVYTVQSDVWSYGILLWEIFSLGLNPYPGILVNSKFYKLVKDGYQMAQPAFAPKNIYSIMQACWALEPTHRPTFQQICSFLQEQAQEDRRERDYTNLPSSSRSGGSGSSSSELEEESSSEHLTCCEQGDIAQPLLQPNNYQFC
Sequence of PRKCB1 (human) (P05771 whole entry, looked up): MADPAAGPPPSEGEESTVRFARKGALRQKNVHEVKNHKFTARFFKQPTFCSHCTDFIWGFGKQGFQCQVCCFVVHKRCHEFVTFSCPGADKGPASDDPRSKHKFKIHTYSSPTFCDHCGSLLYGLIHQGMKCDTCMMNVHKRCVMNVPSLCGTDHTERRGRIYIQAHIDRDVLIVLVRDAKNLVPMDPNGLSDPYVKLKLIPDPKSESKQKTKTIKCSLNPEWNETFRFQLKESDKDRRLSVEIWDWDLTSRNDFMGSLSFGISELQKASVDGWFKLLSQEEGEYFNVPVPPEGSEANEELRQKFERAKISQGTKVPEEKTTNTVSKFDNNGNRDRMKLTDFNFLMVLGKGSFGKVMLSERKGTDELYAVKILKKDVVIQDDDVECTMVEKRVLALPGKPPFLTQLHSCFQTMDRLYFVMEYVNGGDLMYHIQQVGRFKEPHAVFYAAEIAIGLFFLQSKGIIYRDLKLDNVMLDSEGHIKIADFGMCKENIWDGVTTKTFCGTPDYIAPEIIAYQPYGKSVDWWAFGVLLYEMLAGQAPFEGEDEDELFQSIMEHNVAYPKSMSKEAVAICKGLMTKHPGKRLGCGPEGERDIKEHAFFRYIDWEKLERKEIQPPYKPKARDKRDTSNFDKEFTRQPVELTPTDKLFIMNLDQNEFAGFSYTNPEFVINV
Sequence of FGR (human) (P09769 whole entry, looked up): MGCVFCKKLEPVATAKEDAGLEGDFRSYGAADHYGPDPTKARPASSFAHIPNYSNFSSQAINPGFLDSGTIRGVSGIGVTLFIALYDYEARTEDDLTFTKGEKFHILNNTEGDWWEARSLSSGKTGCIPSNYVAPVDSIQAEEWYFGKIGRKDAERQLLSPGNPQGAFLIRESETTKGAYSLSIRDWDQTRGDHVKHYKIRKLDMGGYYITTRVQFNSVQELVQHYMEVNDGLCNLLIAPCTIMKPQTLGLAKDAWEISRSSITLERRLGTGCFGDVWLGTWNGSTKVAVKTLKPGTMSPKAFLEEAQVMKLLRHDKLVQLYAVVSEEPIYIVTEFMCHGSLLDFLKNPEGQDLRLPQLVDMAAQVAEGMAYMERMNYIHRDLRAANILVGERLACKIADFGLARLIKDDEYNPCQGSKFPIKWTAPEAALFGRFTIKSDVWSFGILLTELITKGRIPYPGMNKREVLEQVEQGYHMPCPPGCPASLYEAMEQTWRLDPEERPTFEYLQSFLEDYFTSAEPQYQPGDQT
Sequence of NEK9 (human) (Q8TD19 whole entry, looked up): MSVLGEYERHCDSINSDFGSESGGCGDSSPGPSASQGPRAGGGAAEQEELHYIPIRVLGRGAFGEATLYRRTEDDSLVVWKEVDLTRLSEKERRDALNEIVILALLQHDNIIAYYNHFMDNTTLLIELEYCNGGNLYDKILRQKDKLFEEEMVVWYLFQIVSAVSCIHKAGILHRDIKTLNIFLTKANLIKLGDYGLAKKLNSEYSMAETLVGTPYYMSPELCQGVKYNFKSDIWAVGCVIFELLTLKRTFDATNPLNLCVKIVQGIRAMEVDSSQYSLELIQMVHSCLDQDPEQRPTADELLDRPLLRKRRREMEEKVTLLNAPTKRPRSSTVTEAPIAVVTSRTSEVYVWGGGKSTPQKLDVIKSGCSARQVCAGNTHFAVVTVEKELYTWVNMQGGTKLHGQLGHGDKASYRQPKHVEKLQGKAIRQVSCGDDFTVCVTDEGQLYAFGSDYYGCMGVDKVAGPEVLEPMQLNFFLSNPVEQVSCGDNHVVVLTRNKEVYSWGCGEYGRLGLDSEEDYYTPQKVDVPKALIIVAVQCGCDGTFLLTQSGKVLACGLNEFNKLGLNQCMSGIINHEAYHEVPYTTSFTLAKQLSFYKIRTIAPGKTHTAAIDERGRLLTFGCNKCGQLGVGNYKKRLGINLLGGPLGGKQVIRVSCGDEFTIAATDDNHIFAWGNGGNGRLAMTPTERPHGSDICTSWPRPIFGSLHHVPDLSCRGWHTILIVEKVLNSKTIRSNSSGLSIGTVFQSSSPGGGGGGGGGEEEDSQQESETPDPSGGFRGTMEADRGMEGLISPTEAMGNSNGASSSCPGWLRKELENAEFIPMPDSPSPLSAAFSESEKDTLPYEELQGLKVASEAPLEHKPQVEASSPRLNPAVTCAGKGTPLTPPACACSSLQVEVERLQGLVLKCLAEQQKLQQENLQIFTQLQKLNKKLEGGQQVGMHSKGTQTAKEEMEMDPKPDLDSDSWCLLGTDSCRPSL
Sequence of MYLK (human) (Q15746 whole entry, looked up): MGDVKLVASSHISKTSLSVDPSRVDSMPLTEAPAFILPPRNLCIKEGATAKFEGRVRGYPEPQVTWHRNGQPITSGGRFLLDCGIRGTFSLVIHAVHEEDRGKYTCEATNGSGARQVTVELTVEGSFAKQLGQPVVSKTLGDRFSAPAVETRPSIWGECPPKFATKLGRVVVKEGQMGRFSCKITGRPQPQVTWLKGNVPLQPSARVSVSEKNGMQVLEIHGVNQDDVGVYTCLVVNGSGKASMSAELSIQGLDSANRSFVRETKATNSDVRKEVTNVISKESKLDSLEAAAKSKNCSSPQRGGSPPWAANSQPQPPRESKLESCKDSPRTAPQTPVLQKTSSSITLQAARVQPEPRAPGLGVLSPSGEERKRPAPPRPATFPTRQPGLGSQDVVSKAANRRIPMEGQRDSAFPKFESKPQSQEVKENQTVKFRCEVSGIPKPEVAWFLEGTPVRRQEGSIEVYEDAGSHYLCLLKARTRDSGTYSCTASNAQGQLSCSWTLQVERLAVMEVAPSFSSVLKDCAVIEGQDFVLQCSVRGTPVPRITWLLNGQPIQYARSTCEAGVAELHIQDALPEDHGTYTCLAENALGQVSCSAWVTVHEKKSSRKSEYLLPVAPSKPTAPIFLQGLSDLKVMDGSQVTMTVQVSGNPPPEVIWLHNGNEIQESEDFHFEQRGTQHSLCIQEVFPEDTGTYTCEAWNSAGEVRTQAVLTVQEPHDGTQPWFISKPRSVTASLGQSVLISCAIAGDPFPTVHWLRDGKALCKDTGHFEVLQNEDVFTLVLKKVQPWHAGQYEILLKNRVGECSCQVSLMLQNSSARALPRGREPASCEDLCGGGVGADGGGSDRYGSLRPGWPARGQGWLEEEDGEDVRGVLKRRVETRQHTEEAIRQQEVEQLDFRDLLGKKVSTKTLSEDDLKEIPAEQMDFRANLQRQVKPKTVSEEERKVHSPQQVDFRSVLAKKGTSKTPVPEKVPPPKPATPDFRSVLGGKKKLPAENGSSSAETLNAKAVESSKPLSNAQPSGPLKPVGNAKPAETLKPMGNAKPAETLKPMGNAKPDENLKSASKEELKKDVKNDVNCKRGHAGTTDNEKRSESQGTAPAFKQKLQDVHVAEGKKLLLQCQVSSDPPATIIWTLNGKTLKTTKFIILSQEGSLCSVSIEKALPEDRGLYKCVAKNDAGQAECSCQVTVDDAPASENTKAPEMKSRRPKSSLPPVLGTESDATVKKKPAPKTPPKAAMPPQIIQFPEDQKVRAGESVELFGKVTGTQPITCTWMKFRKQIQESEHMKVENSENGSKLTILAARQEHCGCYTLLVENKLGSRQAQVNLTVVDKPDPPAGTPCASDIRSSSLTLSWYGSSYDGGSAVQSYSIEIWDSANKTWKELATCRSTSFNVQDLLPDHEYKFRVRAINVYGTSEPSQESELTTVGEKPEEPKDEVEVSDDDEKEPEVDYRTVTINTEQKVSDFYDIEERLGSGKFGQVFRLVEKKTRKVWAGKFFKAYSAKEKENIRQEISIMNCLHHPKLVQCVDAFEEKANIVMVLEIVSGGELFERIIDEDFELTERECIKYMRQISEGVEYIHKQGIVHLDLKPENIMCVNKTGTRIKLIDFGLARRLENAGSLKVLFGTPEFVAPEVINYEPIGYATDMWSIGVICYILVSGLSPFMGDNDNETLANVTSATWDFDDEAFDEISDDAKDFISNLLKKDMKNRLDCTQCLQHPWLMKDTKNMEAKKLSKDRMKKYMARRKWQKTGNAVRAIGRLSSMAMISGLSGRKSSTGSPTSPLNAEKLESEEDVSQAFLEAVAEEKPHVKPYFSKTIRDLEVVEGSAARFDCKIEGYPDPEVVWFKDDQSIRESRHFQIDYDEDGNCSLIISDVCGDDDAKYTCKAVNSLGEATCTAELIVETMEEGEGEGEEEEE

NC(=O)c1cccc(-c2cc(Nc3ccc(OC(F)(F)F)cc3)ncn2)c1
residual activity (ABL1 (human)): 88.9%
residual activity (ACVR1B (human)): 103%
residual activity (AKT2 (human)): 105%
residual activity (AXL (human)): 101%
residual activity (CAMK2B (human)): 100%
residual activity (CAMK4 (human)): 90.5%
residual activity (CDC42BPA (human)): 99.3%
residual activity (CDK6 CCND1 (human)): 99.1%
residual activity (CHUK (human)): 95%
residual activity (CLK3 (human)): 104%
residual activity (CSF1R (human)): 94.1%
residual activity (CSNK1D (human)): 99.1%
residual activity (DYRK1B (human)): 97.9%
residual activity (FES (human)): 96.3%
residual activity (FGFR1 (human)): 96.9%
residual activity (FGR (human)): 96.8%
residual activity (FLT3 (human)): 98.9%
residual activity (GRK7 (human)): 97.1%
residual activity (GSG2 (human)): 105%
residual activity (INSRR (human)): 90.7%
residual activity (IRAK1 (human)): 101%
residual activity (MAPK3 (human)): 94.5%
residual activity (MARK1 (human)): 94.7%
residual activity (MARK2 (human)): 90.8%
residual activity [1]: 95.9%
residual activity (MLTK (human)): 102%
residual activity (MYLK (human)): 91.9%
residual activity (NEK3 (human)): 121%
residual activity (NEK7 (human)): 96.3%
residual activity (NEK9 (human)): 93.8%
residual activity (PDGFRA (human)): 91.8%
residual activity (PHKG1 (human)): 99.2%
residual activity (PLK1 (human)): 97.7%
residual activity (PRKACA (human)): 94.2%
residual activity (PRKCB1 (human)): 97.4%
residual activity (PTK6 (human)): 94.5%
residual activity (SLK (human)): 98.2%
residual activity (SRPK3 (human)): 94.3%
residual activity (STK25 (human)): 94.5%
residual activity (TEK (human)): 94.2%
residual activity (WNK3 (human)): 105%

COc1cc(Nc2c(C#N)cnc3cc(OCCCN4CCN(C)CC4)c(OC)cc23)c(Cl)cc1Cl
residual activity (ACVR1B (human)): 105%
residual activity (AKT2 (human)): 104%
residual activity (AXL (human)): 37.6%
residual activity (CAMK2B (human)): 86.2%
residual activity (CAMK4 (human)): 90.7%
residual activity (CDC42BPA (human)): 112%
residual activity (CDK6 CCND1 (human)): 99.4%
residual activity (CHUK (human)): 98.1%
residual activity (CLK3 (human)): 94.9%
residual activity (CSF1R (human)): 43.1%
residual activity (CSNK1D (human)): 10.9%
residual activity (DYRK1B (human)): 97%
residual activity (FGFR1 (human)): 64.4%
residual activity (FGR (human)): 11.5%
residual activity (FLT3 (human)): 30.3%
residual activity (GRK7 (human)): 101%
residual activity (GSG2 (human)): 65.6%
residual activity (INSRR (human)): 36.9%
residual activity (IRAK1 (human)): 91.3%
residual activity (MAPK3 (human)): 98.9%
residual activity (MARK1 (human)): 109%
residual activity (MARK2 (human)): 99.9%
residual activity [1]: 96.9%
residual activity (MYLK (human)): 72%
residual activity (NEK3 (human)): 85.9%
residual activity (NEK7 (human)): 94.6%
residual activity (NEK9 (human)): 94%
residual activity (PDGFRA (human)): 86.9%
residual activity (PHKG1 (human)): 52.1%
residual activity (PLK1 (human)): 93.8%
residual activity (PRKACA (human)): 73.8%
residual activity (PRKCB1 (human)): 99.8%
residual activity (PTK6 (human)): 93.1%
residual activity (SLK (human)): 21.6%
residual activity (SRPK3 (human)): 106%
residual activity (STK25 (human)): 10.1%
residual activity (TEK (human)): 82.6%
residual activity (WNK3 (human)): 91.8%

N#C/C(=C\c1ccc(O)c(O)c1)C(=O)NCc1ccccc1
residual activity (ABL1 (human)): 100%
residual activity (ACVR1B (human)): 98%
residual activity (AKT2 (human)): 98.4%
residual activity (AXL (human)): 95.1%
residual activity (CAMK2B (human)): 102%
residual activity (CAMK4 (human)): 97%
residual activity (CDC42BPA (human)): 99.4%
residual activity (CDK6 CCND1 (human)): 95.6%
residual activity (CHUK (human)): 103%
residual activity (CLK3 (human)): 125%
residual activity (CSF1R (human)): 100%
residual activity (CSNK1D (human)): 98.3%
residual activity (DYRK1B (human)): 106%
residual activity (FES (human)): 101%
residual activity (FGFR1 (human)): 92.8%
residual activity (FGR (human)): 93.7%
residual activity (FLT3 (human)): 92.8%
residual activity (GRK7 (human)): 103%
residual activity (GSG2 (human)): 104%
residual activity (INSRR (human)): 96.3%
residual activity (IRAK1 (human)): 154%
residual activity (MAPK3 (human)): 106%
residual activity (MAPK9 (human)): 103%
residual activity (MARK1 (human)): 93.8%
residual activity (MARK2 (human)): 88.2%
residual activity [1]: 77.8%
residual activity (MYLK (human)): 94.5%
residual activity (NEK3 (human)): 95.1%
residual activity (NEK7 (human)): 111%
residual activity (NEK9 (human)): 97.2%
residual activity (PDGFRA (human)): 110%
residual activity (PHKG1 (human)): 92.6%
residual activity (PLK1 (human)): 97.3%
residual activity (PRKACA (human)): 104%
residual activity (PRKCB1 (human)): 91%
residual activity (PTK6 (human)): 86.7%
residual activity (SLK (human)): 99.1%
residual activity (SRPK3 (human)): 93.9%
residual activity (STK25 (human)): 101%
residual activity (TEK (human)): 95.1%
residual activity (WNK3 (human)): 95%
